This note sets out measurements from patent US12643867B2, “Compositions and uses thereof” (University of Virginia Patent Foundation, priority 2017, dated 2026).

This experiment deals with T1, DGKK (Diacylglycerol kinase kappa) (Homo sapiens, UniProt Q5KSL6).
T1 construct: host or cells: SILAC HEK293T
T1 sequence (Q5KSL6 1-1271): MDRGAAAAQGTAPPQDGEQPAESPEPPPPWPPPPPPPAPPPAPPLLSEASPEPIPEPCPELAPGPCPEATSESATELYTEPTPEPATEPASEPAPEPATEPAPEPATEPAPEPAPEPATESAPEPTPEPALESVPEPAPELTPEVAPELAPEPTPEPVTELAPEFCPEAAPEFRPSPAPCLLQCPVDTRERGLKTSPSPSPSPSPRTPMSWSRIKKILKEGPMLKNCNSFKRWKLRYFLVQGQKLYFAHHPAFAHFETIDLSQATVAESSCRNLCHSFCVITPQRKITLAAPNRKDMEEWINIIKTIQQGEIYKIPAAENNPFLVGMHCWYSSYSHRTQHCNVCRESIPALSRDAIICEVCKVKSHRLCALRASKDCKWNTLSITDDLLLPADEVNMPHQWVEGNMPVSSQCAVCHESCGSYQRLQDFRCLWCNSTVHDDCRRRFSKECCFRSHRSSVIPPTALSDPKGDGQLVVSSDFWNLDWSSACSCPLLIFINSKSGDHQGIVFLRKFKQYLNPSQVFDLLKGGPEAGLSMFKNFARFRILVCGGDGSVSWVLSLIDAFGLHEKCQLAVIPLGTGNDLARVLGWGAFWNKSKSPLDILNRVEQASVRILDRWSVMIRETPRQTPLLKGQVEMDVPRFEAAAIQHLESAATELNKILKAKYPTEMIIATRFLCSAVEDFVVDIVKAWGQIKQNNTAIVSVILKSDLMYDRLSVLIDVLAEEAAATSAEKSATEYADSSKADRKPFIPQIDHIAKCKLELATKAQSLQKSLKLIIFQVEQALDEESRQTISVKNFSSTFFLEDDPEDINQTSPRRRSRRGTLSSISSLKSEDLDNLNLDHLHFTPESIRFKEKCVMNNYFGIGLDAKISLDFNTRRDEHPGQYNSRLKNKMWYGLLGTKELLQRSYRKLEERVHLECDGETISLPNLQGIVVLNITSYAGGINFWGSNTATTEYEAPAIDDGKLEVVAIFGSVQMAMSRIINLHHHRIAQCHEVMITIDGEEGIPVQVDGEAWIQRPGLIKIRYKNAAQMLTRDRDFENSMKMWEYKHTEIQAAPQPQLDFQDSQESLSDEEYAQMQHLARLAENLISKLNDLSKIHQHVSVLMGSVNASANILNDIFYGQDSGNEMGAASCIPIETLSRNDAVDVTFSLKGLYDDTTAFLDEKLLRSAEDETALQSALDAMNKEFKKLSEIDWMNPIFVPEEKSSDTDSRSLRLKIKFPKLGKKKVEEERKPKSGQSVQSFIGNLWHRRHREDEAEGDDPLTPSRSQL
As to the kind of experiment: SILAC LC-MS ATP acyl phosphate probe competition, recombinant DGK-HEK293T lysates. The conditions noted are these: site DAGKa (K892); ATP 1 mM; Ketanserin, Ritanserin 100 μM; RF001 1 mM. In kind it is binding. The text has this:
Recombinant DGK proteins were produced by transient transfection of HEK293T cells with recombinant DNA. pDONR223-DGKK was a gift from William Hahn & David Root (Addgene plasmid #23487). pCSF107mT-GATEWAY-3′-FLAG was a gift from Todd Stukenberg (Addgene plasmid #67619). pCSF107mT-DGKK-FLAG construct was generated by recombination of the Addgene plasmids using the Gateway cloning system (Invitrogen). All other vectors were gifted to Dr. Kevin Lynch (University of Virginia, School of Medicine) by Dr. Kaoru Goto (Yamagata University, School of Medicine) and Dr. Fumio Sakane (Chiba University) and were kindly shared with us: pcDNA3-FLAG-DGKA (rat), pCMV-Tag2B-FLAG-DGKQ (human), pcDNA3-DGKE-3×Flag (human), and pCMV-SPORT6-HA-DGKZ (human). HEK293T cells were plated at a concentration of 400,000 cells in complete DMEM and grown to 50-60% confluency. A polyethyleneimine (PEI) stock solution was prepared (1 mg/mL, pH 7.4) and filter sterilized. Serum-free DMEM (600 μL) was mixed gently with 2.6 μg DNA and 20 μL of sterile PEI (1 mg/mL, pH 7.4) in a sterile microfuge tube. Mixtures were incubated for 30 min at 25° C. The mixture was then added drop-wise to each 10 cm^2 plate, rocked back and forth to mix, and placed back in the incubator. Cell pellets were harvested after two full days of growth, snap-frozen in liquid N2, and stored at −80° C. until use. Recombinant proteins were produced by transient transfection in SILAC HEK293T cells using the procedure described above, except that cells were plated at a concentration of 1×10^6 cells per 10 cm^2 plate and grown to ˜70% confluency prior to introducing transfection mixture.
Proteomes were diluted to 2 mg/ml in kinase buffer. The light and heavy proteomes (0.5 mg, 250 μL total reaction volume) were pre-treated with vehicle or compound, respectively (5 μL, DMSO (light) or 50× stock in DMSO (heavy)), mixed gently, and incubated at 25° C. for 30 min. […] After incubation, matched light and heavy proteomes were transferred and mixed in a 1:1 ratio in a two-dram vial containing 4:1:3 MeOH/CHCl3/H2O (2 mL MeOH, 500 AL CHCl3, 1.5 mL H2O) for extraction of proteins to remove excess probe, quickly vortexed, and centrifuged at 1,400×g for 3 min to pellet protein. Organic and aqueous layers were removed using a Pasteur pipette, and the protein pellet was transferred to a screw-top tube in 600 μL MeOH. A second extraction was performed by adding CHCl3 (150 μL) and H2O (600 μL) to each sample, vortexed, and centrifuged at 1,400×g for 3 min to pellet protein. Organic and aqueous layers were removed by pipetting. MeOH added to pellet (600 μL) and pellets were re-suspended by sonication (3×1 sec pulse, 20% amplitude) for a final extraction. Samples were then centrifuged at 17,000×g for 5 min to pellet protein and MeOH was removed by pipetting. The pellets were re-suspended in 10 M urea/25 mM ammonium bicarbonate ([…]), brought to a final volume of 1 mL with 25 mM ammonium bicarbonate, reduced with 10 mM DTT for 15 min at 65° C. allowed to cool, and then alkylated with 40 mM iodoacetamide for 30 min at 25° C. in the dark. To desalt the samples, each was transferred to a two-dram glass vial, and to the vial 4:1:2 MeOH/CHCl3/H2O (2 mL MeOH, 500 AL CHCl3, 1 mL H2O) was added. The vials were vortexed quickly, spun at 1.400×g for 3 min to pellet protein, and aqueous and organic layers were removed using a Pasteur pipette. The resulting protein pellet was transferred to a screw-top tube in 600 μL MeOH, and then CHCl3 (150 μL) and HO (600 μL) were added to extract protein a second time. The samples were vortexed quickly, centrifuged at 1,400×g to pellet protein, and the aqueous and organic layers were removed by pipetting. Resulting protein pellet was suspended in MeOH (600 μL) via sonication (3×1 sec pulse, 20% amplitude), centrifuged at 17,000×g for 5 min to pellet protein, and MeOH removed by pipetting. […]
Regarding `Cc1nc2sccn2c(=O)c1CCN1CCC(=C(c2ccc(F)cc2)c2ccc(F)cc2)CC1` [Ritanserin], the “SILAC ratio, DGKK DAGKa probe-modified peptide” value (“SILAC ratio” below) is on record as 0.7.

For `Fc1ccc(C(=C2CCNCC2)c2ccc(F)cc2)cc1` [RF001, 4-(Bis(4-fluorophenyl)methylene) piperidine], the “SILAC ratio” value is recorded as 1.6.

Turning to `O=C(c1ccc(F)cc1)C1CCN(CCn2c(=O)[nH]c3ccccc3c2=O)CC1` [Ketanserin], the “SILAC ratio” value turned out to be 0.2.
